The values below come from patent publication US10520492B2, “Method of screening for candidate compounds for regulating melanogenesis or pigmentation” (CHANEL PARFUMS BEAUTE, priority 2013, dated 2019).

Assay [1] deals with tyrosinase. As to the kind of experiment: Western blotting of tyrosinase in G361 cells. It is filed as cell-based, human. How it is done: (§1) Cells were grown and treated in 6-well plates. After transfections or drug treatments as described above, the cells were lysed with RIPA lysis buffer. Cell lysate (30 μg) was resolved on SDS-PAGE followed by transfer onto a nitrocellulose membrane (Millipore) using a semidry transfer blotter. Immunoassays were done with anti-mortalin, anti-HSP70 and anti-tyrosinase antibodies. The immunocomplexes formed were visualized with horseradish peroxidase-conjugated anti-rabbit/mouse immunoglobulin G. The bands were detected by LAS 3000 mini (FujiFilm).
(In general: In western blotting, separated proteins are transferred to a membrane and probed.)

Assay [2] relates to Hsp60. The assay is described as follows: Immunostaining of Hsp60 upon OAG induction. The class given is cell-based, human. Conditions: induction of melanogenesis by OAG, FIG. 4. How it is done: (§2) Cells were cultured and treated on glass coverslips placed in 12-well culture dish. At the end of the treatment as described above, coverslips were washed with cold phosphate-buffered saline (PBS) and the cells were fixed with pre-chilled methanol:acetone (1:1 v/v) mixture for 5-10 min. Fixed cells were washed with PBS, permeabilized with 0.2% TRITON™ X-100 (4-(1,1,3,3-Tetramethylbutyl)phenyl-polyethylene glycol) in PBS for 10 min, and blocked with 2% bovine serum albumin (BSA) in PBS for 20 min. Cells were stained with anti-mortalin, anti-HSP60, anti-tyrosinase and anti-melanosome antibodies. Immunostaining was visualized by secondary staining with Alexa-488 or Alexa-594 conjugated antibodies (Molecular probes). After three to four washings with 0.2% TRITON™ X-100 in PBS (PBST), cells were overlaid with Fluoromount (Difco). The cells were examined with Carl Zeiss microscope with epifluorescence optics.

Assay [3] concerns G361 cells. As to the kind of experiment: Melanin content in G361 cells. It is filed as cell-based, human. Conditions: for OAG-induced melanin content: OAG-treated G361 cells, recovery with test substance. The procedure: Cells were treated with Di-acyl glycerol (OAG, 20 μg/ml) for 24 h followed by recovery either in the normal medium as described below or Vitamin C (0.1-0.3 mM) for 24 to 48 hrs.
(§3) G361 cells were cultured overnight and allowed to adhere to the surface well after which they were treated with TXC supplemented medium or OAG as described below followed by recovery in the TXC medium at doses indicated in the data figs.
Cells were plated in 96 well plates and allowed to attach well to the surface of the plate for 24 hours followed by transfections and treatments as described above and indicated in the figure legends. Cells were washed with PBS. Potassium hydroxide (KOH-0.85 N, 100 μl) was added to each. The plates were shaken gently in dark for overnight. Absorbance of the pigment was measured at 405 nm. Melanin content was calculated by using standard purified melanin (Sigma).

The subject of assay [4] is tyrosinase. As to the kind of experiment: Tyrosinase ELISA (tyrosinase activity assay) in G361 cells. The class given is cell-based, human. How it is done: Cells (Approximately 10000 cells/well) were plated in 96 well Nunc-Immuno maxisorp plates. At about 70% confluency, cells were transfected with shRNA plasmids (100 ng/well) as described above. After 24 hrs post-transfection, the cells were selected in puromycin-supplemented medium and were then processed for tyrosinase ELISA as described below. Cells were washed with PBS twice and were lysed in RIPA lysis buffer (Santa Cruz Biotechnology). Protein concentrations of the lysates were determined (Pierce BCA Protein Assay kit, Thermo Scientific) and the samples were diluted to 1 ug/ul concentration in coating buffer (0.1 M Sodium bicarbonate, 0.02% Sodium Azide pH-9.6). 5 μg of the protein sample was added to each well in a final volume of 100 μl of the coating buffer. The plates were gently shaken for 10 min and were then securely sealed and left for 2 hrs at room temperature. The solution was discarded and the plates were washed with washing buffer (PBS-0.5% TWEEN® 20, which is polysorbate 20) for 5 min. Blocking buffer (200 ul) was added to each well and the plates were incubated for 2 hours at room temperature followed by washings with the Washing buffer twice (3 min each). Anti-tyrosinase antibody (50 μl, 5 μg/ml in the blocking buffer) was added to each well and the plated were sealed and kept at room temperature for 1-2 hrs followed by washings with the washing buffer (3×10 min). The plates were incubated with the secondary antibody (Alkaline phosphatase, AP-Goat anti Rabbit IgG) for 1 hr and were then washed with the washing buffer for 3-5 times. The 100 μl of the substrate for AP (Nitrophenyl Phosphate, Disodium Salt, PNPP) was added to each well. Plates were again sealed and left for 30 min followed by measuring the absorbance at 405 nm that represented the quantitative estimation of tyrosinase expression.
A general note: ELISA stands for enzyme-linked immunosorbent assay.

Assay [5] relates to mortalin. As to the kind of experiment: Mortalin expression (immunoblotting) in G361 cells. The class given is cell-based, human. The procedure:
as §3, §1

Assay [6] relates to human melanoma cells G361. The assay is described as follows: Melanosome immunostaining in G361 cells. Conditions: OAG-treated vs control G361 cells, FIG. 1B. It is filed as cell-based. The procedure:
(§4) The human melanoma G361 were bought from Cell Resource Center for Biomedical Research, Tohoku University, Japan and were cultured in DMEM (Dulbecco's Modified Eagle's Medium, Invitrogen) supplemented with 10% fetal bovine serum in a humidified incubator (37° C. and 5% CO2). Human primary melanocytes from the light and dark skin donors were bought from ScienCell Research Laboratories and were cultured in the recommended melanocyte growth medium. Cells were transfected with the expression plasmids coding for either mortalin or HSP60 protein using Fugene (Roche) as per recommended protocol. Typically 3-5 μg of plasmid DNA was used for 6 cms culture dish at 70-80% confluency. Cells were incubated with the plasmids for 48 hrs after which cells were harvested and examined for the expression indicated genes by protocols as described below. For shRNA transfections, Oligofectamine™ Transfection Reagent (Life Technologies™) was used as per manufacturer's instructions. Transfected cells were incubated with medium supplemented with puromycin (1 ug/ml) for 24-48 hrs and were then processed for assays as described below.
(§5) Cells were cultured and treated on glass coverslips placed in 12-well culture dish. […]

Assay [7] has as its system mortalin. As to the kind of experiment: Immunostaining of mortalin upon OAG induction. It is filed as cell-based, human. Conditions: induction of melanogenesis by OAG, FIG. 5. The procedure: as §2
The test system of assay [8] is primary melanocytes from a skin donor. As to the kind of experiment: Melanosome immunostaining in primary melanocytes from donor. It is filed as cell-based, human. Conditions: OAG-treated vs control primary melanocytes, FIG. 1A. The procedure:
as §4, §5

Assay [9] deals with Hsp60. The assay is described as follows: Hsp60 expression in G361 cells. It is filed as cell-based, human. Particulars: FIG. 13B, Hydrochloride Salt.

“Also recorded” adds a separate entry of the source.

`CCCCCCCC/C=C\CCCCCCCC(=O)OC[C@H](CO)OC(C)=O` [OAG, 1-oleoyl-2-acetyl-sn-glycero]: the tyrosinase expression entry in assay [1] (OAG-treated G361 cells, FIG. 3A) is on record as “increase”. The “Hsp60 level (immunostaining)” value in assay [2] is “upregulation”. In assay [3] (G361 cells treated with OAG, FIG. 2), the melanin content entry is listed as “Increase”. In assay [4] (OAG-treated G361 cells, FIG. 3B), the tyrosinase activity result is recorded as “increase”. Also, in [5] (G361 cells treated with OAG, FIG. 13C), the mortalin expression result was “Increase”. Besides, the melanosome production result in assay [6] and in assay [8] was “induced” in each case. For the same compound, the “mortalin level (immunostaining)” value in [7] was “upregulation”.
For `CCCCCCCCCCCCCCCCOC(=O)C1CCC(CN)CC1.Cl` (centres unmarked) [TXC, Cetyl Tranexamate Hydrochloride Salt], the “endogenous expression of tyrosinase” value in assay [1] (G361 cells, FIG. 13A, Hydrochloride Salt) is listed as “Reduction; also recorded: decreases”. For the same compound, the OAG-induced melanin content result in assay [3] is “reduction”. Also, the endogenous melanin result in [3] (OAG-untreated G361 cells) was “reduction”. The OAG-induced tyrosinase activity entry in [4] (OAG-treated G361 cells, TXC at various concentrations, FIG. 12) is recorded as “reduction”. In assay [5] (G361 cells treated with OAG, then recovery in presence of test substance, Hydrochloride Salt), the “OAG-induced expression of Mortalin” value is “reduction; also recorded: decrease”. Moreover, in assay [5] (G361 cells, FIG. 13, Hydrochloride Salt), the “endogenous expression of Mortalin” value is “reduction; also recorded: decreases”. Moreover, the “endogenous expression of Hsp60” value in assay [9] is recorded as “Reduction; also recorded: decreases”.
In the case of `O=C1O[C@H]([C@@H](O)CO)C(O)=C1O` [Vitamin C], in [3], the OAG-induced melanin content entry was “reduction”. For the same compound, the OAG-induced tyrosinase entry in assay [4] (OAG-treated G361 cells then Vitamin C, FIG. 3) is listed as “decrease”.
